From ChEMBL document CHEMBL1201862, “PubChem BioAssay data set” (2004)
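Values below derive from 48-hour exposures of cells grown in 96-well plates, with endpoints linearly interpolated between the two concentrations bracketing the appropriate inhibition level. GI50 = concentration required for 50% inhibition of growth.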 Activity calls are given as the source filed them. Cut-off read from the data, not from the text of the source: active = GI50 up to about 1.1 µM and inactive = higher.

How the values were obtained:
Experiment in all cases: growth of human tumour cells (NCI), 48 h
COLO 205 = system: COLO 205
DU-145 = system: DU-145
EKVX = system: EKVX
HCT-116 = system: HCT-116
HL-60 = system: HL-60
K562 = system: K562
MCF7 = system: MCF7
NCI-H23 = system: NCI-H23
NCI-H460 = system: NCI-H460
NCI-H522 = system: NCI-H522
PC-3 = system: PC-3
RXF 393 = system: RXF 393
SK-MEL-28 = system: SK-MEL-28
SK-MEL-2 = system: SK-MEL-2
SK-OV-3 = system: SK-OV-3
SW-620 = system: SW-620
T47D = system: T47D
TK-10 = system: TK-10
UACC-62 = system: UACC-62
SNB-75 = system: SNB-75

Measured: GI50

COc1ccc(/C=C/c2ccnc3ccccc23)cc1
inactive: COLO 205 16.8 µM | DU-145 14.8 µM | EKVX 13.1 µM | HCT-116 15.7 µM | HL-60 6.78 µM | K562 6.34 µM | MCF7 15.6 µM | NCI-H23 12.7 µM | NCI-H460 23.6 µM | NCI-H522 17.5 µM | PC-3 18.2 µM | RXF 393 19.3 µM | SK-MEL-28 14.5 µM | SK-MEL-2 20.3 µM | SK-OV-3 19.1 µM | SW-620 17.7 µM | T47D 4.9 µM | TK-10 16.2 µM | UACC-62 15.7 µM

O=C1Nc2ccccc2/C1=N/NC(=S)Nc1ccc([N+](=O)[O-])cc1
inactive: COLO 205 10.3 µM | DU-145 14.8 µM | EKVX 12.3 µM | HCT-116 5.71 µM | HL-60 > 100 µM | K562 2.88 µM | MCF7 7.93 µM | NCI-H23 13.8 µM | NCI-H460 2.51 µM | NCI-H522 12.5 µM | PC-3 3.17 µM | SK-MEL-28 14.2 µM | SK-MEL-2 4.25 µM | SK-OV-3 4.76 µM | SNB-75 13.9 µM | SW-620 4.01 µM | T47D 10.4 µM | TK-10 10 µM | UACC-62 8.47 µM

CC(C)(C)OC(=O)NC1CCCCC1NC(=O)C(=O)NC1CCCCC1NC(=O)OC(C)(C)C (stereo not drawn)
inactive: COLO 205 > 100 µM | DU-145 > 100 µM | EKVX > 100 µM | HCT-116 78.2 µM | HL-60 > 100 µM | K562 > 100 µM | MCF7 > 100 µM | NCI-H23 > 100 µM | NCI-H460 > 100 µM | NCI-H522 66.5 µM | PC-3 > 100 µM | RXF 393 9.46 µM | SK-MEL-28 > 100 µM | SK-MEL-2 59 µM | SK-OV-3 44.2 µM | SW-620 > 100 µM | T47D > 100 µM | TK-10 37.6 µM | UACC-62 24 µM

CCOC(=O)NN(C(=O)OCC)C(C(=O)c1ccccc1)N(NC(=O)OCC)C(=O)OCC
inactive: COLO 205 > 100 µM | DU-145 > 100 µM | EKVX > 100 µM | HCT-116 > 100 µM | HL-60 > 100 µM | K562 > 100 µM | MCF7 > 100 µM | NCI-H23 > 100 µM | NCI-H460 > 100 µM | NCI-H522 > 100 µM | PC-3 > 100 µM | RXF 393 > 100 µM | SK-MEL-28 > 100 µM | SK-OV-3 > 100 µM | SNB-75 > 100 µM | SW-620 > 100 µM | T47D > 100 µM | TK-10 > 100 µM | UACC-62 > 100 µM

NC(=O)/C=c1/c2ccccc2n2nc3ccccc3c12
inactive: COLO 205 20.4 µM | DU-145 37.8 µM | EKVX 14.4 µM | HCT-116 4.82 µM | HL-60 3.91 µM | K562 15.3 µM | MCF7 26.9 µM | NCI-H23 22.1 µM | NCI-H460 25.8 µM | NCI-H522 14.1 µM | PC-3 11 µM | RXF 393 17.1 µM | SK-MEL-28 16.8 µM | SK-MEL-2 15.6 µM | SK-OV-3 16.3 µM | SW-620 17.5 µM | T47D 7.01 µM | TK-10 23.3 µM | UACC-62 19.4 µM

NC12CC3CC4C1CC1CC2C(C3)C4(N)C1
inactive: COLO 205 > 100 µM | DU-145 > 100 µM | EKVX > 100 µM | HCT-116 > 100 µM | HL-60 > 100 µM | K562 > 100 µM | MCF7 > 100 µM | NCI-H23 > 100 µM | NCI-H460 > 100 µM | NCI-H522 > 100 µM | PC-3 > 100 µM | RXF 393 > 100 µM | SK-MEL-28 > 100 µM | SK-MEL-2 > 100 µM | SK-OV-3 > 100 µM | SW-620 > 100 µM | T47D > 100 µM | TK-10 50.7 µM | UACC-62 > 100 µM

CC(C)/C(Cl)=N/OC(NC(=O)Nc1ccc(Cl)c(Cl)c1)(C(F)(F)F)C(F)(F)F
inactive: COLO 205 3.17 µM | DU-145 16.7 µM | EKVX 19.4 µM | HCT-116 7.36 µM | HL-60 2.54 µM | K562 3.05 µM | MCF7 19.4 µM | NCI-H23 17.8 µM | NCI-H460 24.5 µM | NCI-H522 1.69 µM | PC-3 13.6 µM | RXF 393 3.42 µM | SK-MEL-28 19.2 µM | SK-OV-3 18.2 µM | SNB-75 16.9 µM | SW-620 1.81 µM | T47D 7.64 µM | TK-10 17.4 µM | UACC-62 16 µM

O=C(CSc1nc2ccccc2c(=O)n1-c1ccccc1)N/N=C1\C(=O)Nc2ccc(F)cc21
inactive: COLO 205 2.64 µM | DU-145 1.89 µM | EKVX 2.43 µM | HCT-116 2.02 µM | HL-60 1.82 µM | K562 1.61 µM | MCF7 2.18 µM | NCI-H23 3.01 µM | NCI-H460 2.19 µM | PC-3 1.85 µM | RXF 393 1.95 µM | SK-MEL-28 2.08 µM | SK-MEL-2 1.88 µM | SK-OV-3 1.81 µM | SW-620 4.24 µM | T47D 1.87 µM | TK-10 1.9 µM | UACC-62 2.24 µM

Cc1cn(C(CO)OC(CO)CN(O)C2C3CC4CC(C3)CC2C4)c(=O)[nH]c1=O (stereo not drawn)
inactive: COLO 205 > 100 µM | DU-145 > 100 µM | EKVX > 100 µM | HCT-116 > 100 µM | HL-60 > 100 µM | K562 > 100 µM | MCF7 > 100 µM | NCI-H23 > 100 µM | NCI-H460 > 100 µM | PC-3 > 100 µM | SK-MEL-28 > 100 µM | SK-MEL-2 > 100 µM | SK-OV-3 > 100 µM | SNB-75 > 100 µM | SW-620 > 100 µM | T47D > 100 µM | TK-10 > 100 µM | UACC-62 > 100 µM

Cc1c(N)nc([C@H](CC(N)=O)NC[C@H](N)C(N)=O)nc1C(=O)N[C@H](C(=O)N[C@H](C)[C@@H](O)CC(=O)N[C@H](C(=O)NC(O[C@@H]1O[C@@H](C)[C@@H](N)[C@@H](O)[C@H]1O)C(O)c1nc(-c2nc(C(=O)NCCC[S+](C)C)cs2)cs1)[C@@H](C)O)[C@H](O[C@@H]1O[C@@H](CO)[C@@H](O)[C@H](O)[C@@H]1O[C@H]1O[C@H](CO)[C@@H](O)[C@H](OC(N)=O)[C@@H]1O)c1c[nH]cn1 (stereo partly drawn)
inactive: COLO 205 > 100 µM | DU-145 > 100 µM | EKVX > 100 µM | HCT-116 15.1 µM | HL-60 > 100 µM | MCF7 39.4 µM | NCI-H23 > 100 µM | NCI-H460 2.79 µM | NCI-H522 15.1 µM | PC-3 65 µM | RXF 393 25.8 µM | SK-MEL-28 > 100 µM | SK-MEL-2 > 100 µM | SK-OV-3 > 100 µM | SNB-75 18.3 µM | SW-620 > 100 µM | T47D > 100 µM | TK-10 > 100 µM | UACC-62 35.4 µM
